{
  "source": "patent US10730826B2",
  "about": "“Ketone inhibitors of lysine gingipain” (CORTEXYME, INC., priority 2016, dated 2020)",
  "key": {"P. gingivalis W83": {"test_system": "P. gingivalis W83", "test": "Mouse periodontitis model, alveolar bone loss", "format": "in vivo, BALB/C mice", "settings": "week 5-10", "experimental": "At the beginning of the study, eight week old BALB/C female mice received antibiotic in drinking water (sulfamethoxazolum 0.87 mg/mL, trimethoprimum 0.17 mg/mL) for 10 days to reduce microbiome protection from experiment infection. Experimental periodontitis was induced by ligature placement followed by multiple exposures to P. gingivalis. During the ligature procedure mice were anesthetized with an intraperitoneal injection of ketamine (200 mg/kg) and xylazine (10 mg/kg), and eyes were lubricated with ointment (Puralube Vet; Pharmaderm, Melville, N.Y.). Next, a 5-0 silk ligature (Roboz Surgical Instrument Co.) was tied around the upper maxillary left and right second molar. Sutures were applied and tied gently to prevent damage to the periodontal tissue.\nMice (n=8-10/arm) were infected for 6 weeks every other day. For infection, […]. of bacteria solution were applied topically to the buccal surface of the maxillae. For preparation of the bacteria, P. gingivalis W83 (ATCC, Rockville, Md.) was streaked on Tryptic Soy Broth (TSB) agar plates (5% sheep blood, supplemented with 0.5 mg/mL L-cysteine, 5 μg/mL hemin, and 0.5 μg/mL vitamin K) and grown under anaerobic conditions at 37° C. for 5-7 days. Samples were then inoculated in TSB with hemin, vitamin K and L-cysteine (TSB-HKC) until mid-log phase (OD600=0.5-0.7). Bacteria were washed in PBS and prepared at final concentration of 1×10^10 cells/mL in PBS+2% methylcellulose (CMC).\nVehicle-treated animals received PBS only. At 5 weeks, a subgroup of animals (n=16) were euthanized to gather baseline measurements before the start of treatment. After 10 weeks, mice were euthanized and the brain, serum, and maxillary tissues were harvested and frozen in liquid nitrogen.\nBone loss in the maxillae was measured ex vivo blinded using OsiriX MD software (PixmeoSARL, Bernex, Switzerland). […] The distance between the cementoenamel junction (CEJ) and the alveolar bone crest (ABC) was measured from the CEJ to a reference line on the ABC which was placed perpendicular to the superficial root one each side of the second molar. […]"}, "Cathepsin B": {"target": "Cathepsin B (Homo sapiens (Human), UniProt P07858)", "test": "Cathepsin B inhibition assay", "format": "biochemical", "settings": "Table 4; read-out: IC50 (nM) CatB", "experimental": "(§1) The capacities of compounds of the present invention to inhibit the activity of cathepsins B, H, K, L, and S were measured in similar assays. Boc-Leu-Arg-Arg-AMC (20 μM) in sodium acetate buffer (50 mM, pH 5.5) containing DTT (1 mM) and EDTA (2 mM) was used for the Cathepsin B assay. L-Arg-AMC (20 μM) in sodium acetate buffer (50 mM, pH 5.5) containing DTT (1 mM) and EDTA (2 mM) was used for the Cathepsin H assay. Z-Phe-Arg-AMC (10 μM) in HEPES buffer (50 mM, pH 7.4) containing DTT (2.5 mM) and EDTA (1 mM) was used for the Cathepsin K assay. Z-Phe-Arg-AMC (20 μM) in sodium acetate buffer (50 mM, pH 5.5) containing DTT (1 mM) and EDTA (2 mM) was used for the Cathepsin L assay. Z-Leu-Arg-AMC (10 μM) in sodium acetate buffer (25 mM, pH 4.5) containing DTT (2.5 mM) and NaCl (50 mM) was used for the Cathepsin S assay. The capacities of the compounds to inhibit the activity of cathepsins F, V, and Z were also measured.\n(§2) Further assays to measure the inhibitory activity of compounds of the present invention against Kgp and cathepsins B, H, K, L, and S were conducted as described in Example 66. The capacities of the compounds to inhibit the activity of cathepsins F, V, and Z were also measured."}, "Cathepsin L": {"target": "Cathepsin L (Homo sapiens (Human), UniProt P07711)", "sequence (P07711 114-333, species assumed)": "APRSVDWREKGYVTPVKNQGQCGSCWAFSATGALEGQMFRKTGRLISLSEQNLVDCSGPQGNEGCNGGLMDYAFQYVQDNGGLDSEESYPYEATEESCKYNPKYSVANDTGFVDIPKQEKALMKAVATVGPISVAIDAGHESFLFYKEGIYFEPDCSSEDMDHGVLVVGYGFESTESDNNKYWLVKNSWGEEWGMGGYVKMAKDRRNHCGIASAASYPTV", "test": "Cathepsin L inhibition assay", "format": "biochemical", "settings": "Table 4; read-out: IC50 (nM) CatL", "experimental": "as §1, §2"}, "Cathepsin K": {"target": "Cathepsin K (Homo sapiens (Human), UniProt P43235)", "sequence (P43235 115-329, species assumed)": "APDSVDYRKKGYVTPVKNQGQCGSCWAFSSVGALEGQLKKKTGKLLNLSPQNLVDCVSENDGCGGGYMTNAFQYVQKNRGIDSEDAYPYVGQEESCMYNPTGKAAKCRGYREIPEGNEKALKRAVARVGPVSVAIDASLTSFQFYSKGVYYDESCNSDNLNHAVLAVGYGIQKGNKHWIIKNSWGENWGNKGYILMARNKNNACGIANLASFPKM", "test": "Cathepsin K inhibition assay", "format": "biochemical", "settings": "Table 4; read-out: IC50 (nM) CatK", "experimental": "as §1, §2"}, "Cathepsin H": {"target": "Cathepsin H (Homo sapiens (Human), UniProt P09668)", "sequence (P09668 98-335, species assumed)": "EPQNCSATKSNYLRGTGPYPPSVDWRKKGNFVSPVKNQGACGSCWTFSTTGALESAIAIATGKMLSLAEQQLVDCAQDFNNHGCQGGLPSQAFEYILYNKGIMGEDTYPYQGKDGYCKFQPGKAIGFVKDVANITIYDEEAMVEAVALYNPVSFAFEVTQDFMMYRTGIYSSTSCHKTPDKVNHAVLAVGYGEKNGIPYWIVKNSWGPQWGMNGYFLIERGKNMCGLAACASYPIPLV", "test": "Cathepsin H inhibition assay", "format": "biochemical", "settings": "Table 4; read-out: IC50 (nM) CatH", "experimental": "as §1, §2"}},
  "data": [
    {"compound": "NCCCC[C@H](NC(=O)C1CCCC1)C(=O)COc1c(F)ccc(F)c1F", "note": "[Compound 1, (S)—N-(7-amino-2-oxo-1-(2,3,6-trifluorophenoxy)heptan-3-yl)cyclopentanecarboxamide]", "values": [
      {"measurement": "alveolar bone loss", "setting": "P. gingivalis W83; 3 mg/kg oral b.i.d.", "value": "trended to improvement but did not result in significant improvement"},
      {"measurement": "alveolar bone loss", "setting": "P. gingivalis W83; 10 mg/kg oral b.i.d.", "value": "improved"},
      {"measurement": "alveolar bone loss", "setting": "P. gingivalis W83; 30 mg/kg oral b.i.d.", "value": "improved"},
      {"measurement": "IC50", "setting": "Cathepsin B", "value": 380, "unit": "nM"},
      {"measurement": "IC50", "setting": "Cathepsin L", "value": 4680, "unit": "nM"},
      {"measurement": "IC50", "setting": "Cathepsin K", "value": 117, "unit": "nM"},
      {"measurement": "IC50", "setting": "Cathepsin H", "value": 560, "unit": "nM"}
    ]}
  ]
}
